We go through 31 compounds from patent publication US11028079B2 (ConverGene LLC, priority 2015, dated 2021).

The test addresses T1, BRD4 bromodomains (Homo sapiens, UniProt O60885).
T1 construct: fused on or other part: T7 phage capsid protein (phage-display fusion; the phage DNA is read out by qPCR)
Nature of the test: BROMOscan bromodomain competition binding assay (DiscoveRx). To be noted: Kd from 11 compound concentrations ranging from 0 to 10 μM, read-out: BROMOscan Relative Activity. The gist of the method: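 Compounds in 0.1% DMSO/0.9% MEG competed with a solid-phase acetylated peptide for T7 phage-fused BRD4 bromodomains, with the retained bromodomain measured by qPCR.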

For the compound `COCCn1cc(-c2nc(NCc3cccc(Cl)c3)c3cc(-c4c(C)noc4C)ccc3n2)cn1` [Example 58, N-(3-chlorobenzyl)-6-(3,5-dimethylisoxazol-4-yl)-2-(1-(2-methoxyethyl)-1H-pyrazol-4-yl)quinazolin-4-amine], the Kd was below 500 nM.
`Cc1noc(C)c1-c1ccc2nc(C(=O)NCc3ncc[nH]3)nc(NCc3cccc(Cl)c3)c2c1` [Example 177, N-((1H-imidazol-2-yl)methyl)-4-((3-chlorobenzyl)amino)-6-(3,5-dimethylisoxazol-4-yl)quinazoline-2-carboxamide]: the Kd is below 500 nM.
The result for `Cc1noc(C)c1-c1ccc2ncnc(N3CCC(C(=O)O)CC3)c2c1` [Example 261, 1-(6-(3,5-dimethylisoxazol-4-yl)quinazolin-4-yl)piperidine-4-carboxylic Acid] reads 500 to 5000 nM; that for `Cc1noc(C)c1-c1ccc2nc(N3CCC(S(C)(=O)=O)CC3)nc(NCc3cncc(Cl)c3)c2c1` [Example 154, N-((5-chloropyridin-3-yl)methyl)-6-(3,5-dimethylisoxazol-4-yl)-2-(4-(methylsulfonyl)piperidin-1-yl)quinazolin-4-amine], below 500 nM; that for `Cc1noc(C)c1-c1ccc2nc(N3CCN(CCN(C)C)CC3)nc(NCc3ccccc3F)c2c1` [Example 76, 2-(4-(2-(dimethylamino)ethyl)piperazin-1-yl)-6-(3,5-dimethylisoxazol-4-yl)-N-(2-fluorobenzyl)quinazolin-4-amine], below 500 nM.
`Cc1noc(C)c1-c1ccc2nc(N3CCN(CCN(C)C)CC3)nc(NCc3cncc(F)c3)c2c1` [Example 83, 2-(4-(2-(dimethylamino)ethyl)piperazin-1-yl)-6-(3,5-dimethylisoxazol-4-yl)-N-((5-fluoropyridin-3-yl)methyl)quinazolin-4-amine]: the Kd is below 500 nM.
The result for `Cc1noc(C)c1-c1ccc2nc(C(=O)NC3CCS(=O)(=O)CC3)cc(NCc3cccc(Cl)c3)c2c1` [Example 235, 4-((3-chlorobenzyl)amino)-6-(3,5-dimethylisoxazol-4-yl)-N-(1,1-dioxidotetrahydro-2H-thiopyran-4-yl)quinoline-2-carboxamide] reads below 500 nM; that for `Cc1noc(C)c1-c1ccc2nc(C(=O)NCc3cnn(C)c3)nc(NCc3cccc(Cl)c3)c2c1` [Example 186, 4-((3-chlorobenzyl)amino)-6-(3,5-dimethylisoxazol-4-yl)-N-((1-methyl-1H-pyrazol-4-yl)methyl)quinazoline-2-carboxamide], below 500 nM.
The result for `Cc1noc(C)c1-c1ccc2nc(-c3cnn(CC(C)(C)O)c3)nc(NCc3cccc(Cl)c3)c2c1` [Example 56, 1-(4-(4-((3-chlorobenzyl)amino)-6-(3,5-dimethylisoxazol-4-yl)quinazolin-2-yl)-1H-pyrazol-1-yl)-2-methylpropan-2-ol] reads below 500 nM.
The result for `Cc1noc(C)c1-c1ccc2nc(N3CCc4[nH]ncc4C3)nc(NCc3cccc(Cl)c3)c2c1` [Example 290, N-(3-chlorobenzyl)-6-(3,5-dimethylisoxazol-4-yl)-2-(1,4,6,7-tetrahydro-5H-pyrazolo[4,3-c]pyridin-5-yl)quinazolin-4-amine] reads 500 to 5000 nM.
Regarding `Cc1noc(C)c1-c1ccc2nc(C(=O)NC3CCN(C)CC3)nc(NCc3cncc(Cl)c3)c2c1` [Example 209, 4-(((5-chloropyridin-3-yl)methyl)amino)-6-(3,5-dimethylisoxazol-4-yl)-N-(1-methylpiperidin-4-yl)quinazoline-2-carboxamide], the Kd is below 500 nM.
Take `Cc1noc(C)c1-c1ccc2nc(C(=O)Nc3ccc(Cl)nc3)nc(NCc3cccc(Cl)c3)c2c1` [Example 222, 4-((3-chlorobenzyl)amino)-N-(6-chloropyridin-3-yl)-6-(3,5-dimethylisoxazol-4-yl)quinazoline-2-carboxamide]: the Kd was above 5000 nM.
The result for `Cc1noc(C)c1-c1ccc2nc(C(=O)NCc3ccncc3)nc(NCc3cncc(Cl)c3)c2c1` [Example 207, 4-(((5-chloropyridin-3-yl)methyl)amino)-6-(3,5-dimethylisoxazol-4-yl)-N-(pyridin-4-ylmethyl)quinazoline-2-carboxamide] reads below 500 nM.
The result for `Cc1noc(C)c1-c1ccc2nc(N3CCN(CCN(C)C)CC3)nc(N3CC(Cc4ccccc4)C3)c2c1` [Example 161, 2-(4-(4-(3-benzylazetidin-1-yl)-6-(3,5-dimethylisoxazol-4-yl)quinazolin-2-yl)piperazin-1-yl)-N,N-dimethylethanamine] reads 500 to 5000 nM.
The result for `Cc1noc(C)c1-c1ccc2nc(N3CCN(C(=O)c4cccnc4)CC3)nc(NCc3cccc(Cl)c3)c2c1` [Example 35, (4-(4-((3-chlorobenzyl)amino)-6-(3,5-dimethylisoxazol-4-yl)quinazolin-2-yl)piperazin-1-yl)(pyridin-3-yl)methanone] reads below 500 nM.
With `Cc1noc(C)c1-c1ccc2nc(N3CCCC(CO)C3)nc(NCc3cccc(Cl)c3)c2c1` (stereo not shown) [Example 24, (1-(4-((3-chlorobenzyl)amino)-6-(3,5-dimethylisoxazol-4-yl)quinazolin-2-yl)piperidin-3-yl)methanol], the Kd was in the range of 500 to 5000 nM.
The result for `Cc1noc(C)c1-c1ccc2nc(Cl)nc(NCc3cccc(Cl)c3)c2c1` [Example 1, 2-chloro-N-(3-chlorobenzyl)-6-(3,5-dimethylisoxazol-4-yl)quinazolin-4-amine] reads 500 to 5000 nM; that for `CNC(=O)Cn1cc(-c2nc(NCc3cccc(Cl)c3)c3cc(-c4ccc(=O)n(C)c4)ccc3n2)cn1` [Example 102, 2-(4-(4-((3-chlorobenzyl)amino)-6-(1-methyl-6-oxo-1,6-dihydropyridin-3-yl)quinazolin-2-yl)-1H-pyrazol-1-yl)-N-methylacetamide], below 500 nM.
In the case of `Cc1noc(C)c1-c1ccc2nc(C(=O)NCc3ccc(Cl)nc3)nc(NCc3cccc(Cl)c3)c2c1` [Example 203, 4-((3-chlorobenzyl)amino)-N-((6-chloropyridin-3-yl)methyl)-6-(3,5-dimethylisoxazol-4-yl)quinazoline-2-carboxamide], the Kd is below 500 nM.
The result for `Cc1noc(C)c1-c1ccc2nc(-c3cnn(CC(C)(C)O)c3)nc(NC3(c4cccc(Cl)c4)CC3)c2c1` [Example 182, 1-(4-(4-((1-(3-chlorophenyl)cyclopropyl)amino)-6-(3,5-dimethylisoxazol-4-yl)quinazolin-2-yl)-1H-pyrazol-1-yl)-2-methylpropan-2-ol] reads below 500 nM.
The result for `Cc1noc(C)c1-c1ccc2nc(Cl)nc(NCc3cncc(Cl)c3)c2c1` [Example 112, 2-chloro-N-((5-chloropyridin-3-yl)methyl)-6-(3,5-dimethylisoxazol-4-yl)quinazolin-4-amine] reads 500 to 5000 nM; that for `Cc1noc(C)c1-c1ccc2nc(C(=O)NCc3cncc(Cl)c3)nc(NCc3cccc(Cl)c3)c2c1` [Example 191, 4-((3-chlorobenzyl)amino)-N-((5-chloropyridin-3-yl)methyl)-6-(3,5-dimethylisoxazol-4-yl)quinazoline-2-carboxamide], below 500 nM.
The result for `Cc1noc(C)c1-c1ccc2nc(-c3cnn(C(C)(C)CO)c3)nc(N3CCOC[C@@H]3c3ccccc3)c2c1` [Example 304, (S)-2-(4-(6-(3,5-dimethylisoxazol-4-yl)-4-(3-phenylmorpholino)quinazolin-2-yl)-1H-pyrazol-1-yl)-2-methylpropan-1-ol] reads below 500 nM; that for `Cn1cc(-c2ccc3nc(N4CCN(CC(C)(C)O)CC4)nc(NCc4cccc(Cl)c4)c3c2)ccc1=O` [Example 134, 5-(4-((3-chlorobenzyl)amino)-2-(4-(2-hydroxy-2-methylpropyl)piperazin-1-yl)quinazolin-6-yl)-1-methylpyridin-2(1H)-one], below 500 nM; that for `Cc1noc(C)c1-c1ccc2nc(C(=O)NCc3nccn3C)nc(NCc3cccc(Cl)c3)c2c1` [Example 251, 4-((3-chlorobenzyl)amino)-6-(3,5-dimethylisoxazol-4-yl)-N-((1-methyl-1H-imidazol-2-yl)methyl)quinazoline-2-carboxamide], below 500 nM.
For `CN1CCC(NC(=O)c2cc(NCc3cccc(Cl)c3)c3cc(-c4ccc(=O)n(C)c4)ccc3n2)CC1` [Example 227, 4-((3-chlorobenzyl)amino)-6-(1-methyl-6-oxo-1,6-dihydropyridin-3-yl)-N-(1-methylpiperidin-4-yl)quinoline-2-carboxamide], the Kd is below 500 nM.
`Cc1noc(C)c1-c1ccc2nc(NCCN3CCOCC3)nc(NCc3cccc(Cl)c3)c2c1` [Example 10, N4-(3-chlorobenzyl)-6-(3,5-dimethylisoxazol-4-yl)-N2-(2-morpholinoethyl)quinazoline-2,4-diamine]: the Kd was below 500 nM.
The result for `Cc1noc(C)c1-c1ccc2nc(N3CCN(C(=O)CO)CC3)nc(NCc3cccc(Cl)c3)c2c1` [Example 36, 1-(4-(4-((3-chlorobenzyl)amino)-6-(3,5-dimethylisoxazol-4-yl)quinazolin-2-yl)piperazin-1-yl)-2-hydroxyethanone] reads below 500 nM.
For `CNC(=O)CN1CCN(c2nc(NCc3cccc(Cl)c3)c3cc(-c4ccc(=O)n(C)c4)ccc3n2)CC1` [Example 109, 2-(4-(4-((3-chlorobenzyl)amino)-6-(1-methyl-6-oxo-1,6-dihydropyridin-3-yl)quinazolin-2-yl)piperazin-1-yl)-N-methylacetamide], the Kd is below 500 nM.
The result for `Cc1nn(C)cc1CNC(=O)c1cc(NCc2cccc(Cl)c2)c2cc(-c3c(C)noc3C)ccc2n1` [Example 230, 4-((3-chlorobenzyl)amino)-N-((1,3-dimethyl-1H-pyrazol-4-yl)methyl)-6-(3,5-dimethylisoxazol-4-yl)quinoline-2-carboxamide] reads below 500 nM; that for `Cc1noc(C)c1-c1ccc2nc(-c3cnn(C(C)(C)CO)c3)nc(NCc3cccc(Cl)c3)c2c1` [Example 62, 2-(4-(4-((3-chlorobenzyl)amino)-6-(3,5-dimethylisoxazol-4-yl)quinazolin-2-yl)-1H-pyrazol-1-yl)-2-methylpropan-1-ol], below 500 nM.
